Laboratory results taken from US20190070174A1, “METHODS OF TREATING NEURODEGENERATIVE DISEASES” (priority 2016, published 2019).

How the values were obtained:
MJD/SCA3 flies = assay: Survival of MJD/SCA3 flies; type: in vivo, Drosophila; details: 50 μM in food from eclosion
Method: Drosophila stocks were reared on standard cornmeal media at 25° C. in diurnal environments with ˜60% humidity. […] Full-length human ATXN3 cDNA with 77 CAG was cloned into pWalium10-moe (Perrimon Lab, Harvard Medical School). Flies that carry ATXN3 in site attP2 or the empty vector control into the same site as the most isogenic control line were generated. Injections were done into y[1], w[*]; +; attP2 (landing site). […] Adult flies of the following genotypes, w[*]; sqh-Gal4/+; UAS-ataxin-3Q77/+ or w[*], sqh-Gal4/+; Empty-Vector-Control/+ were switched from standard media to instant media as soon as they eclosed from their pupal case (day 0), and thereafter maintained on instant media with vehicle compound. Media was switched every three days, and death was noted daily.
At least 200 flies in groups of 9 to 17 flies per treatment vial were monitored.

Rad23b = assay: Subchronic treatment of Q84 mice, Western blot of brainstem soluble fractions; type: in vivo, mouse; details: Q84 mice vs vehicle
Method: (§1) YACMJD84.2 transgenic mice were housed in cages with a maximum number of five animals and maintained in a standard 12-hour light/dark cycle with food and water ad libitum. Genotyping was performed using DNA isolated from tail biopsy at the time of weaning, and genotypes of all studied mice were confirmed using DNA extracted from tails collected post-mortem. […] Five hours after the final injection, mice were anesthetized with ketamine/xylazine and perfused transcardially with phosphate buffered saline (PBS) (for RNA and protein studies), and brains were immediately placed on dry ice and stored at −80° C.
(§2) Protein lysates from cell cultures, mouse brain slices or mouse brains were obtained by lysis in RIPA buffer containing protease inhibitors (Complete, Roche Diagnostics), followed by sonication and centrifugation. The supernatants (soluble protein fractions) were collected, total protein concentration was determined using the BCA method (Pierce) and then stored at −80° C. […] Pellets corresponding to insoluble protein fractions were resuspended in 100 μL of Laemmli buffer 2× and boiled for 10 min. Insoluble proteins were then quantified, and 100 μg were loaded in a filter trap assay apparatus and transferred to a nitrocellulose membrane (0.45 μm pore) that was incubated overnight with rabbit anti-MJD antibody (1:5000) at 4° C. Bound primary antibodies were visualized by incubation with a peroxidase-conjugated anti-mouse or anti-rabbit secondary antibody (1:10000; Jackson Immuno Research Laboratories) followed by treatment with the ECL-plus reagent (Western Lighting, PerkinElmer) and exposure to autoradiography films. Band intensity was quantified by densitometry using ImageJ.

Rad23a = assay: as above; type: in vivo, mouse; details: Q84 mice vs vehicle
Method: as §1, §2

Hsf1 = assay: as above; type: in vivo, mouse
Method: as §1, §2

Hsp90β = assay: as above; type: in vivo, mouse
Method: as §1, §2

Hsp40 = assay: as above; type: in vivo, mouse
Method: as §1, §2

Hsp90a = assay: as above; type: in vivo, mouse
Method: as §1, §2

Hsp70 = assay: as above; type: in vivo, mouse
Method: as §1, §2

human mutant ATXN3Q84 = type: cell-based; details: sagittal brain slices treated for 48 hours, cerebellum and brainstem
Method: Nine slices per brain were used in each set of cultures. […] After 48 hours of incubation at 37° C./5% CO2, brain slices were assessed for ATXN3 levels by immunoblotting or immunofluorescence and for cell viability. For immunoblotting, each slice was macrodissected into separate cerebellum and brainstem that were immediately frozen at −80° C. in 80 μL and 150 μL of cold RIPA buffer containing protease inhibitors (Complete, Roche Diagnostics), respectively. Cell viability was assessed on treated slices by incubation in propidium iodide (PI) 1 μg/mL in culture medium for 1 hour. Slices were then mounted in PROLONG Gold Antifade Reagent (Invitrogen) and imaged using a FV500 Olympus confocal microscope.
as §2
To assess the efficacy of the five compounds to reduce ATXN3 levels in the mammalian brain, secondary screens in organotypic brain slice cultures derived from hemizygous YACMJD84.2 (Q84) transgenic mice were performed.

SMILES: O=C1CCc2ccc(OCCCCN3CCN(c4cccc(Cl)c4Cl)CC3)cc2N1 [aripiprazole]
- increased mean survival compared with vehicle-treated flies (MJD/SCA3 flies): 1.3 days
- mean survival (MJD/SCA3 flies; vehicle-treated 7.7±0.343): 9.0 ± 0.367 days
- levels of Rad23b (Rad23b): trend toward decreased levels
- levels of Rad23a (Rad23a): trend toward decreased levels
- Heat shock transcription factor (Hsf1) level (Hsf1): increased
- levels of Hsp90β compared with vehicle-treated mice (Hsp90β): 22%
- levels of Hsp40 (Hsp40): No differences
- levels of Hsp90a compared with vehicle-treated mice (Hsp90a): 79%
- levels of Hsp70 compared with vehicle-treated mice (Hsp70): 62%
- levels of human mutant ATXN3Q84 (human mutant ATXN3Q84): reduced levels
